# US20260295053A1, “COMPOUNDS FOR DEGRADATION AND INHIBITION OF KRAS (G12D) PROTEIN” (Shenzhen Ionova Life Science Co., Ltd., priority 2023, published 2026)
# Molecular target: T1, KRAS (G12D) (Homo sapiens, UniProt P01116, G12D)
# T1 construct: in-cell western with KRAS G12D antibody after 24 h
# Assay: KRAS (G12D) cellular degradation assay in AsPC-1 cells
# Format: cell-based
# Details: 24 hours, antibody fluorescence (Odyssey CLX), DC50 half-maximal degradation concentration
# Procedure: ASPC-1 and PK-59 cellular assays ASPC-1 (ATCC cat. CRL-1682) and PK-59 (Nanjing Cobioer, Cat. No. CBP61184) were used in KRAS cellular degradation, pERK inhibition and proliferation assays. The two cell lines were maintained following vendor's instructions. For monitoring KRAS (G12D) cellular degradation and pERK biomarker inhibition, cells were seeded into a 96-well plate with 22,000 and 16,000 cells/well for assays in ASPC-1 and PK-59, respectively. Cells were incubated at 37° C. with 5% CO2 and cell density was monitored until ^~90% confluency was reached. Compounds were serially diluted at a 1:3 ratio and dispensed into each well at final concentrations ranging from […] to 1.5 nM. After incubation for 24 hours, the culture media were removed and the cells were subjected to fixation, permeabilization and blocking (Intercept blocking buffer, Li-cor). For KRAS (G12D) degradation, the cells were treated with primary antibody (KRAS G12D antibody, Cell Signaling Technologies, Cat. No. CST14429) and for β-actin (β-actin mAb, Beyotime, Cat. No. AF-5001), and followed by secondary antibodies, Anti-rabbit IgG (H+L) (DyLight™ 800 4×PEG Conjugate) or IRDye® 680RD Goat anti-Mouse IgG. For pERK inhibition assay, cells were treated with primary antibodies for pERK (Phospho-p44/42 MAPK (Erk1/2) (Thr202/Tyr204) (D13.14.4E) XP® Rabbit mAb, Cell Signaling Technologies, Cat. No. CST-4370) and β-actin (β-actin mAb, Beyotime, Cat. No. AF-5001), and followed by secondary antibodies, Anti-rabbit IgG (H+L) (DyLight™ 800 4×PEG Conjugate) or IRDye® 680RD Goat anti-Mouse IgG. Fluorescence signals were read on Odyssey CLX instrument. For cell proliferation assays, cells were seeded into a 96-well plate at 3,500 and 800 cells/well for assays in ASPC-1 and PK-59, respectively. Cells were incubated at 37° C. with 5% CO2 for overnight. Compounds were serially diluted at a 1:3 ratio and dispensed into each well at final concentrations ranging from […] to 1.5 nM. After incubation for 6 days, cell viability reagent (CellTiter Glo, Promega, Cat. No. G7573) was added to each well and luminescence was recorded on Molecular Devices Spectramax iD3 instrument. IC50, half-maximal inhibitory concentration for pERK inhibition or cell proliferation, and DC50, half-maximal degradation concentration in KRAS (G12D) cellular degradation were determined by fitting the corresponding dose response curves using GraphPad Prism software.
# Wherein “A” means the value <10 nM, “B” means 10 nM<the value <100 nM, “C” means 100 nM<the value <1000 nM, and “D” means the value >1000 nM, in which, the value means the value of DC50 or IC50. NT means not tested.
# T1 sequence (P01116 1-188 isoform P01116-2 G12D): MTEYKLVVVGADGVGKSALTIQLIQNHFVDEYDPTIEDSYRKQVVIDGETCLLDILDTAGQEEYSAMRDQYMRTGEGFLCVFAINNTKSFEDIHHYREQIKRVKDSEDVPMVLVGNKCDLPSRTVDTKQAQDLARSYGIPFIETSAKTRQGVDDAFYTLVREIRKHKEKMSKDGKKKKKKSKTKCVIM
row,DC50 [nM],Compound
1,< 10,"CCn1nccc1-c1ccc([C@H](CO)NC(=O)[C@@H]2C[C@@H](O)CN2C(=O)[C@H](C(C)C)n2cc(-c3ccc(COc4c(-c5c(C)c(F)cc6[nH]ncc56)c(C5CC5)cc5c(N6CCCNCC6)nc(OC[C@H](C)OC)nc45)cc3)nn2)c2c1CC2 [Example 224, (2S,4R)-1-((2S)-2-(4-(4-(((6-cyclopropyl-4-(1,4-diazepan-1-yl)-7-(6-fluoro-5-methyl-1H-indazol-4-yl)-2-((S)-2-methoxypropoxy)quinazolin-8-yl)oxy)methyl)phenyl)-1H-1,2,3-triazol-1-yl)-3-methylbutanoyl)-N—((R)-1-(5-(1-ethyl-1H-pyrazol-5-yl)bicyclo[4.2.0]octa-1(6),2,4-trien-2-yl)-2-hydroxyethyl)-4-hydroxypyrrolidine-2-carboxamide]"
2,< 10,"Cc1ncsc1-c1ccc([C@H](CO)NC(=O)[C@@H]2C[C@@H](O)CN2C(=O)[C@H](C(C)C)n2cc(-c3ccc(COc4c(-c5c(C)c(F)cc6[nH]ncc56)c(C5CC5)cc5c(N6C[C@H]7C[C@@H]6CN7)nc(OC6CCOCC6)nc45)cc3)nn2)cc1 (single isomer, unassigned) [Example 5A]"
3,> 1000,"CCn1nccc1-c1ccc([C@H](CO)NC(=O)[C@@H]2C[C@@H](O)CN2C(=O)[C@H](C(C)C)n2cc(-c3ccc(COc4c(-c5c(C)c(F)cc6[nH]ncc56)c(C5CC5)cc5c(N(C)C[C@H]6CCCN6)nc(OC[C@H](C)OC)nc45)cc3)nn2)cc1 [Example 218, (2S,4R)-1-((2S)-2-(4-(4-(((6-cyclopropyl-7-(6-fluoro-5-methyl-1H-indazol-4-yl)-2-((S)-2-methoxypropoxy)-4-(methyl(((R)-pyrrolidin-2-yl)methyl)amino)quinazolin-8-yl)oxy)methyl)phenyl)-1H-1,2,3-triazol-1-yl)-3-methylbutanoyl)-N—((R)-1-(4-(1-ethyl-1H-pyrazol-5-yl)phenyl)-2-hydroxyethyl)-4-hydroxypyrrolidine-2-carboxamide]"
4,10 to 100,"CCn1nccc1-c1ccc([C@H](CO)NC(=O)[C@@H]2C[C@@H](O)CN2C(=O)[C@H](C(C)C)n2cc(-c3ccc(COc4c(-c5c(C)c(F)cc6[nH]ncc56)c(C5CC5)cc5c(N6CCC(C#N)CC6)nc(OC[C@H](C)OC)nc45)cc3)nn2)cc1 [Example 174, (2S,4R)-1-((2S)-2-(4-(4-(((4-(4-cyanopiperidin-1-yl)-6-cyclopropyl-7-(6-fluoro-5-methyl-1H-indazol-4-yl)-2-((S)-2-methoxypropoxy)quinazolin-8-yl)oxy)methyl)phenyl)-1H-1,2,3-triazol-1-yl)-3-methylbutanoyl)-N—((R)-1-(4-(1-ethyl-1H-pyrazol-5-yl)phenyl)-2-hydroxyethyl)-4-hydroxypyrrolidine-2-carboxamide]"
5,< 10,"CCn1nccc1-c1ccc([C@H](CO)NC(=O)[C@@H]2C[C@@H](O)CN2C(=O)[C@H](C(C)C)n2cc(-c3ccc(COc4c(-c5c(C)c(F)cc6[nH]ncc56)c(C5CC5)cc5c(N6CCCNCC6)nc(OC[C@H]6CCCO6)nc45)cc3)nn2)cc1 [Example 214, (2S,4R)-1-((2S)-2-(4-(4-(((6-cyclopropyl-4-(1,4-diazepan-1-yl)-7-(6-fluoro-5-methyl-1H-indazol-4-yl)-2-(((R)-tetrahydrofuran-2-yl)methoxy)quinazolin-8-yl)oxy)methyl)phenyl)-1H-1,2,3-triazol-1-yl)-3-methylbutanoyl)-N—((R)-1-(4-(1-ethyl-1H-pyrazol-5-yl)phenyl)-2-hydroxyethyl)-4-hydroxypyrrolidine-2-carboxamide]"
6,< 10,CO[C@@H]1CC[C@@H](Oc2nc(N3C[C@@H]4C[C@H]3CN4)c3cc(C4CC4)c(-c4c(C)c(F)cc5[nH]ncc45)c(OCc4ccc(-c5cn([C@H](C(=O)N6C[C@H](O)C[C@H]6C(=O)N[C@H](c6ccc(-c7scnc7C)cc6)[C@H](C)O)C(C)C)nn5)cc4)c3n2)C1 [Example 212]
7,10 to 100,"CO[C@@H](C)COc1nc(N2C[C@@H]3CN[C@@H](C3)C2)c2cc(C3CC3)c(-c3c(C)c(F)cc4[nH]ncc34)c(OCc3ccc(-c4cn([C@H](C(=O)N5C[C@H](O)C[C@H]5C(=O)N[C@@H](CO)c5ccc(-c6scnc6C)cc5)C(C)C)nn4)cc3)c2n1 [Example 230, (2S,4R)-1-((2S)-2-(4-(4-(((4-((1S,5S)-3,6-diazabicyclo[3.2.1]octan-3-yl)-6-cyclopropyl-7-(6-fluoro-5-methyl-1H-indazol-4-yl)-2-((S)-2-methoxypropoxy)quinazolin-8-yl)oxy)methyl)phenyl)-1H-1,2,3-triazol-1-yl)-3-methylbutanoyl)-4-hydroxy-N—((R)-2-hydroxy-1-(4-(4-methylthiazol-5-yl)phenyl)ethyl)pyrrolidine-2-carboxamide]"
8,> 1000,"CO[C@@H](C)COc1nc(N2C[C@H]3C[C@@H]2CN3)c2cc(C3CC3)c(-c3c(C)c(F)cc4[nH]ncc34)c(OCc3ccc(-c4cn([C@H](C(=O)N5C[C@H](O)C[C@H]5C(=O)NCc5ccc(-c6scnc6C)cc5)C(C)C)nn4)cc3)c2n1 (single isomer, unassigned) [Example 11B]"
9,> 1000,"CCn1nccc1-c1ccc([C@H](CO)NC(=O)[C@@H]2C[C@@H](O)CN2C(=O)[C@H](C(C)C)n2cc(-c3ccc(COc4c(-c5c(C)c(F)cc6[nH]ncc56)c(C5CC5)cc5c(N6CC7CCC(C6)N7)nc(OC[C@H](C)OC)nc45)cc3)nn2)cc1 (single isomer, unassigned) [Example 13B]"
10,100 to 1000,"CO[C@@H](C)COc1nc(N2CCCNCC2)c2cc(C3CC3)c(-c3c(C)c(F)cc4[nH]ncc34)c(OCc3ccc(-c4cn([C@H](C(=O)N5C[C@H](O)C[C@H]5C(=O)N[C@H](CO)c5ccc(-c6scnc6C)c6c5CC6)C(C)C)nn4)cc3)c2n1 [Example 221, (2S,4R)-1-((2S)-2-(4-(4-(((6-cyclopropyl-4-(1,4-diazepan-1-yl)-7-(6-fluoro-5-methyl-1H-indazol-4-yl)-2-((S)-2-methoxypropoxy)quinazolin-8-yl)oxy)methyl)phenyl)-1H-1,2,3-triazol-1-yl)-3-methylbutanoyl)-4-hydroxy-N—((S)-2-hydroxy-1-(5-(4-methylthiazol-5-yl)bicyclo[4.2.0]octa-1(6),2,4-trien-2-yl)ethyl)pyrrolidine-2-carboxamide]"
11,10 to 100,"CCn1nccc1-c1ccc([C@H](CO)NC(=O)[C@@H]2C[C@@H](O)CN2C(=O)[C@H](C(C)C)n2cc(-c3ccc(COc4c(-c5c(C)c(F)cc6[nH]ncc56)c(C5CC5)cc5c(N6CCC(NC(C)=O)CC6)nc(OC[C@H](C)OC)nc45)cc3)nn2)cc1 [Example 226, (2S,4R)-1-((2S)-2-(4-(4-(((4-(4-acetamidopiperidin-1-yl)-6-cyclopropyl-7-(6-fluoro-5-methyl-1H-indazol-4-yl)-2-((S)-2-methoxypropoxy)quinazolin-8-yl)oxy)methyl)phenyl)-1H-1,2,3-triazol-1-yl)-3-methylbutanoyl)-N—((R)-1-(4-(1-ethyl-1H-pyrazol-5-yl)phenyl)-2-hydroxyethyl)-4-hydroxypyrrolidine-2-carboxamide]"
12,> 1000,"CCn1nccc1-c1ccc([C@H](CO)NC(=O)[C@@H]2C[C@@H](O)CN2C(=O)[C@H](C(C)C)n2cc(-c3ccc(COc4c(-c5c(C)c(F)cc6[nH]ncc56)c(C5CC5)cc5c(N6C[C@H]7C[C@@H]6CN7)nc(OC6CCOCC6)nc45)cc3)nn2)cc1 (single isomer, unassigned) [Example 16B]"
13,10 to 100,"CCn1nccc1-c1ccc([C@H](CO)NC(=O)[C@@H]2C[C@@H](O)CN2C(=O)[C@H](C(C)C)n2cc(-c3ccc(COc4c(-c5c(C)c(F)cc6[nH]ncc56)c(C5CC5)cc5c(N6C[C@@H]7C[C@H]6CN7)nc(N6CC(OC)C6)nc45)cc3)nn2)cc1 [Example 126, (2S,4R)-1-((2S)-2-(4-(4-(((4-((1S,4S)-2,5-diazabicyclo[2.2.1]heptan-2-yl)-6-cyclopropyl-7-(6-fluoro-5-methyl-1H-indazol-4-yl)-2-(3-methoxyazetidin-1-yl)quinazolin-8-yl)oxy)methyl)phenyl)-1H-1,2,3-triazol-1-yl)-3-methylbutanoyl)-N—((R)-1-(4-(1-ethyl-1H-pyrazol-5-yl)phenyl)-2-hydroxyethyl)-4-hydroxypyrrolidine-2-carboxamide]"
